In US10858360B2, “Tricyclic gyrase inhibitors” (priority 2011, dated 2020):
≈ marks a conversion by molar mass, not a printed value. Where two headings read alike, the source gives them in different places.

Tests used:
S. aureus ATCC 13709 = experiment: MIC, S. aureus ATCC 13709 (Alamar Blue broth microdilution); format: cell-based; conditions: for MIC: Staphylococcus aureus, ATCC13709, S. aureus
E. coli ATCC 25922 = experiment: MIC, E. coli ATCC 25922; format: cell-based; conditions: for MIC: Escherichia coli, ATCC25922, E. coli
[1] = Alamar Blue read after overnight incubation at 35° C.
[2] = S. aureus, Alamar Blue read after overnight incubation at 35° C.
[3] = E. coli, Alamar Blue read after overnight incubation at 35° C.

| SMILES | MIC (S. aureus ATCC 13709; [1]) [mg/L] | MIC (E. coli ATCC 25922; [1]) [mg/L] | other results |
| --- | --- | --- | --- |
| CNc1cc(F)cc2c1[nH]c1nc(Oc3cnc(C(C)(C)O)nc3)nc(N3CC4CC3C[C@@H]4N)c12 (stereo partly shown) [4.411] | ≤ 0.5 | ≤ 0.5 | – |
| CNc1cc(F)cc2c1[nH]c1nc(Oc3cnc(C(C)(C)O)nc3)nc(N3CC4C[C@@H](N)C4C3)c12 (stereo partly shown) [4.412] | ≤ 0.5 | ≤ 0.5 | – |
| CNc1cc(F)cc2c1[nH]c1nc(Oc3cnc(C(C)(C)O)nc3)nc(N3CC4(CC[C@H]4N)C3)c12 [4.413] | ≤ 0.5 | ≤ 0.5 | – |
| CNc1cc(F)cc2c1[nH]c1nc(Oc3cnc(CCO)nc3)nc(N3CC4CC3C[C@@H]4N)c12 (stereo partly shown) [4.414] | ≤ 0.5 | 2 (≈ 4.31 µM) | – |
| CNc1cc(F)cc2c1[nH]c1nc(Oc3cnc(CCO)nc3)nc(N3CC4C[C@@H](N)C4C3)c12 (stereo partly shown) [4.415] | ≤ 0.5 | 1 (≈ 2.15 µM) | – |
| CNc1cc(F)cc2c1[nH]c1nc(Oc3cnc(C)nc3)nc(-c3cncc(F)c3)c12 [4.417] | ≤ 0.5 | 1 (≈ 2.38 µM) | – |
| CNc1cc(F)cc2c1[nH]c1nc(Oc3cnc(C)nc3)nc(-c3cn[nH]c3)c12 [4.418] | ≤ 0.5 | 1 (≈ 2.56 µM) | – |
| CNc1cc(F)cc2c1[nH]c1nc(Oc3cnc(C)nc3)nc(-c3ccc(Cl)c(N)c3)c12 [4.419] | ≤ 0.5 | > 16 | – |
| CNc1cc(F)cc2c1[nH]c1nc(Oc3cnc(C)nc3)nc(-c3ccc(F)cc3CN)c12 [4.420] | 2 (≈ 4.47 µM) | > 16 | – |
| CNc1cc(F)cc2c1[nH]c1nc(Oc3cnc(C)nc3)nc(-c3cc(CN)ccc3F)c12 [4.421] | 2 (≈ 4.47 µM) | 8 (≈ 17.9 µM) | – |
| CNc1cc(F)cc2c1[nH]c1nc(Oc3cnc(C)nc3)nc(-c3cccc(CN)c3F)c12 [4.422] | 4 (≈ 8.94 µM) | 16 (≈ 35.8 µM) | – |
| Cc1ncc(Oc2nc(N3C[C@H](N)C4(CC4)C3)c3c(n2)[nH]c2c(N(C)C(=O)[C@H](C)N)cc(F)cc23)cn1 [4.423] | > 16 | > 16 | – |
| Cc1ncc(Oc2nc(N3C[C@H](N)C4(CC4)C3)c3c(n2)[nH]c2c(N(C)C(=O)[C@H](C)NC(=O)[C@H](C)N)cc(F)cc23)cn1 [4.425] | > 16 | > 16 | – |
| Cc1ncc(Oc2nc(N3C[C@H](N)C4(CC4)C3)c3c(n2)[nH]c2c(N(C)C(=O)CN)cc(F)cc23)cn1 [4.426] | 8 (≈ 16.3 µM) | > 16 | – |
| Cc1ncc(Oc2nc(N3C[C@H](NC(=O)CN)C4(CC4)C3)c3c(n2)[nH]c2c(N(C)C(=O)CN)cc(F)cc23)cn1 [4.427] | > 16 | > 16 | – |
| CNc1cc(F)cc2c1[nH]c1nc(Oc3cnc(CCO)nc3)nc(N3CC4CC3C[C@@H]4N)c12 (stereo partly shown) [4.428] | – | – | MIC Sa (S. aureus ATCC 13709; [2]): ≤0.5 mg/L; MIC Ec (E. coli ATCC 25922; [3]): 2 mg/L (≈ 4.31 µM) |
| CNc1cc(F)cc2c1[nH]c1nc(Oc3cnc(CCO)nc3)nc(N3CC4C[C@@H](N)C4C3)c12 (stereo partly shown) [4.429] | – | – | MIC Sa (S. aureus ATCC 13709; [2]): ≤0.5 mg/L; MIC Ec (E. coli ATCC 25922; [3]): 1 mg/L (≈ 2.15 µM) |
| CNc1cc(F)cc2c1[nH]c1nc(Oc3cnc(C(C)O)nc3)nc(C3CC4(CC[C@H]4N)C3)c12 (stereo partly shown) [4.430] | ≤ 0.5 | ≤ 0.5 | – |
| CNc1cc(F)cc2c1[nH]c1nc(Oc3cnc(C(C)(C)O)nc3)nc(C3CC4(CC[C@H]4N)C3)c12 (stereo partly shown) [4.431] | ≤ 0.5 | ≤ 0.5 | – |
| CNc1cc(F)cc2c1[nH]c1nc(Oc3cnc(OC)nc3)nc(N3C[C@H](N)C4(CC4)C3)c12 [4.433] | ≤ 0.5 | ≤ 0.5 | – |
| CNc1cc(F)cc2c1[nH]c1nc(Oc3cnc(C#N)c(C)c3)nc(N3CC4CC3C[C@@H]4N)c12 (stereo partly shown) [4.435] | ≤ 0.5 | ≤ 0.5 | – |
| CNc1cc(F)cc2c1[nH]c1nc(Oc3cnc(C)nc3)nc(N3CC(N)C(C(F)(F)F)C3)c12 (stereo not shown) [4.436] | ≤ 0.5 | > 16 | – |
| CNc1cc(F)cc2c1[nH]c1nc(Oc3cnc(C)nc3)nc(N3CC(N)C(C(=O)OC)C3)c12 (stereo not shown) [4.437] | ≤ 0.5 | 1 (≈ 2.14 µM) | – |
| CNc1cc(F)cc2c1[nH]c1nc(Oc3cnc(C)nc3)nc(N3CC(N)C(C(=O)N4CCOCC4)C3)c12 (stereo not shown) [4.438] | 1 (≈ 1.92 µM) | 16 (≈ 30.7 µM) | – |
| CNc1cc(F)cc2c1[nH]c1nc(Oc3cnc(C)nc3)nc(N3CC(N)C(C(=O)NCC(C)O)C3)c12 (stereo not shown) [4.439] | 8 (≈ 15.7 µM) | > 16 | – |
| CNc1cc(F)cc2c1[nH]c1nc(Oc3cnc(C)nc3)nc(N3CC(N)C(C(=O)NCCN4CCOCC4)C3)c12 (stereo not shown) [4.440] | 16 (≈ 28.3 µM) | > 16 | – |
| CNc1cc(F)cc2c1[nH]c1nc(Oc3cnc(C(C)(C)C)nc3)nc(N3CC4CC3C[C@H]4N)c12 (stereo partly shown) [4.441] | ≤ 0.5 | ≤ 0.5 | – |

| SMILES | MIC (S. aureus ATCC 13709; [1]) [mg/L] | MIC (E. coli ATCC 25922; [1]) [mg/L] | other results |
| --- | --- | --- | --- |
| CNc1cc(F)cc2c1[nH]c1nc(Oc3cnc(C(C)(C)N)nc3)nc(N3C[C@H]4CC3C[C@H]4N)c12 [4.442] | 1 (≈ 2.09 µM) | 2 (≈ 4.19 µM) | – |
| CNc1cc(F)cc2c1[nH]c1nc(Oc3cnc(CF)nc3)nc(N3C[C@H]4CC3C[C@H]4N)c12 [4.443] | ≤ 0.5 | ≤ 0.5 | – |
| CNc1cc(F)cc2c1[nH]c1nc(Oc3cnc(C)nc3)nc(-c3cccnc3N)c12 [4.448] | ≤ 0.5 | 1 (≈ 2.4 µM) | – |
| CNc1cc(F)cc2c1[nH]c1nc(Oc3cnc(C)nc3)nc(-c3cncnc3)c12 [4.449] | ≤ 0.5 | > 16 | – |
| CNc1cc(F)cc2c1[nH]c1nc(Oc3cnc(C)nc3)nc(-c3cncc(N)c3)c12 [4.450] | ≤ 0.5 | 2 (≈ 4.8 µM) | – |
| CNc1cc(F)c(F)c2c1[nH]c1nc(Oc3cnc(C)nc3)nc(N3CC4(CC[C@H]4N)C3)c12 [5.01] | ≤ 0.5 | ≤ 0.5 | – |
| CNc1cc(F)c(F)c2c1[nH]c1nc(Oc3cnc(C)nc3)nc(N3CC4(CCC4N)C3)c12 (stereo not shown) [5.1] | – | – | MIC Sa (S. aureus ATCC 13709; [2]): ≤0.5 mg/L; MIC Ec (E. coli ATCC 25922; [3]): ≤0.5 mg/L |
| CNc1cc(F)c(F)c2c1[nH]c1nc(Oc3cnc(C)nc3)nc(N3CCC4(CC4N)C3)c12 (stereo not shown) [5.02] | – | – | MIC Sa (S. aureus ATCC 13709; [2]): ≤0.5 mg/L; MIC Ec (E. coli ATCC 25922; [3]): ≤0.5 mg/L |
| CNc1cc(F)c(F)c2c1[nH]c1nc(Oc3cnc(C)nc3)nc(N3CC4CC(N)C4C3)c12 (stereo not shown) [5.03] | – | – | MIC Sa (S. aureus ATCC 13709; [2]): ≤0.5 mg/L; MIC Ec (E. coli ATCC 25922; [3]): ≤0.5 mg/L |
| CNc1cc(F)c(F)c2c1[nH]c1nc(Oc3cnc(C)nc3)nc(N3CC(N)C4(CC4)C3)c12 (stereo not shown) [5.05] | – | – | MIC Sa (S. aureus ATCC 13709; [2]): ≤0.5 mg/L; MIC Ec (E. coli ATCC 25922; [3]): ≤0.5 mg/L |
| CNc1cc(F)c(F)c2c1[nH]c1nc(Oc3cnc(C)nc3)nc(N3CC(N)C3)c12 [5.06] | – | – | MIC Sa (S. aureus ATCC 13709; [2]): ≤0.5 mg/L; MIC Ec (E. coli ATCC 25922; [3]): ≤0.5 mg/L |
| CNc1cc(F)c(F)c2c1[nH]c1nc(Oc3cnc(N)nc3)nc(N3CC4(CCC4N)C3)c12 (stereo not shown) [5.07] | – | – | MIC Sa (S. aureus ATCC 13709; [2]): ≤0.5 mg/L; MIC Ec (E. coli ATCC 25922; [3]): 1 mg/L (≈ 2.21 µM) |
| CNc1cc(F)c(F)c2c1[nH]c1nc(Oc3cncnc3)nc(N3CC(N)C4(CC4)C3)c12 (stereo not shown) [5.09] | – | – | MIC Sa (S. aureus ATCC 13709; [2]): ≤0.5 mg/L; MIC Ec (E. coli ATCC 25922; [3]): ≤0.5 mg/L |
| CNc1cc(F)c(F)c2c1[nH]c1nc(Oc3cnc(CO)nc3)nc(N3C[C@H]4C[C@@H]3C[C@H]4N)c12 [5.14] | ≤ 0.5 | ≤ 0.5 | – |
| CNc1cc(F)c(F)c2c1[nH]c1nc(Oc3cnc4c(c3)ncn4C3CC3)nc(N3C[C@H]4C[C@@H]3C[C@H]4N)c12 [5.15] | ≤ 0.5 | 1 (≈ 1.93 µM) | – |
| CNc1c(F)ccc2c1[nH]c1nc(Oc3cnc(C)nc3)nc(N3CC[C@@H](N)C3)c12 [6.01] | ≤ 0.5 | 1 (≈ 2.45 µM) | – |
| CNc1c(F)ccc2c1[nH]c1nc(Oc3cncnc3)nc(N3CC4C(N)C4C3)c12 (stereo not shown) [6.02] | – | – | MIC Sa (S. aureus ATCC 13709): ≤0.5 mg/L; MIC Ec (E. coli ATCC 25922): ≤0.5 mg/L |
| CNc1c(F)ccc2c1[nH]c1nc(Oc3cnc4cccnc4c3)nc(N3CC(N)C4(CC4)C3)c12 (stereo not shown) [6.03] | – | – | MIC Sa (S. aureus ATCC 13709): ≤0.5 mg/L; MIC Ec (E. coli ATCC 25922): ≤0.5 mg/L |
| CNc1cc(C(F)(F)F)cc2c1[nH]c1nc(Oc3cnc(C)nc3)nc(N3CC4C(N)C4C3)c12 (stereo not shown) [6.10] | – | – | MIC Sa (S. aureus ATCC 13709): ≤0.5 mg/L; MIC Ec (E. coli ATCC 25922): ≤0.5 mg/L |
| CNc1cc(Cl)cc2c1[nH]c1nc(Oc3cncnc3)nc(N3CCC4(CC4N)C3)c12 (stereo not shown) [6.11] | – | – | MIC Sa (S. aureus ATCC 13709): ≤0.5 mg/L; MIC Ec (E. coli ATCC 25922): ≤0.5 mg/L |
| CNc1cc(Cl)cc2c1[nH]c1nc(Oc3cncnc3)nc(N3CC4(CC4N)C3)c12 (stereo not shown) [6.12] | – | – | MIC Sa (S. aureus ATCC 13709): ≤0.5 mg/L; MIC Ec (E. coli ATCC 25922): ≤0.5 mg/L |
| CNc1cc(Cl)cc2c1[nH]c1nc(Oc3cnc(C)nc3)nc(N3CC4CCCNC4C3)c12 (stereo not shown) [6.13] | – | – | MIC Sa (S. aureus ATCC 13709): ≤0.5 mg/L; MIC Ec (E. coli ATCC 25922): ≤0.5 mg/L |
| CNc1cc(Cl)cc2c1[nH]c1nc(Oc3cnc4cccnc4c3)nc(N3CCCC4(CC4N)C3)c12 (stereo not shown) [6.14] | – | – | MIC Sa (S. aureus ATCC 13709): ≤0.5 mg/L; MIC Ec (E. coli ATCC 25922): 1 mg/L (≈ 2 µM) |
| CNc1cc(Cl)cc2c1[nH]c1nc(Oc3cnc(N)nc3)nc(N3CCC4(CC4N)C3)c12 (stereo not shown) [6.15] | – | – | MIC Sa (S. aureus ATCC 13709): ≤0.5 mg/L; MIC Ec (E. coli ATCC 25922): ≤0.5 mg/L |
| CNc1cc(Cl)cc2c1[nH]c1nc(Oc3cnc(N)nc3)nc(N3CC4CC(N)C4C3)c12 (stereo not shown) [6.16] | – | – | MIC Sa (S. aureus ATCC 13709): ≤0.5 mg/L; MIC Ec (E. coli ATCC 25922): 1 mg/L (≈ 2.21 µM) |
| CNc1cc(Cl)cc2c1[nH]c1nc(Oc3cnc(N)nc3)nc(N3CC4C(N)C4C3)c12 (stereo not shown) [6.17] | – | – | MIC Sa (S. aureus ATCC 13709): ≤0.5 mg/L; MIC Ec (E. coli ATCC 25922): ≤0.5 mg/L |
